In article PMC3657615 (Nature chemical biology, 2012):

Assays:
[1] = format: physicochemical
[2] = system: RSK2-CTD-mediated autophosphorylation of Ser386; assay: pS386 RSK inhibition in MDA-MB-231 cells; format: cell-based
RSK1/2 [3] = assay: Cellular RSK1/2 occupancy assay using FMK-BODIPY; format: cell-based; conditions: MDA-MB-231 cells
RSK1/2 [4] = assay: Cellular RSK1/2 occupancy after inhibitor washout; format: cell-based; conditions: MDA-MB-231 cells, 1 μM inhibitor
[5] = Reaction with 10 mM glutathione; format: physicochemical

## N#C/C=C/c1ccccc1 [Compound 2, cinnamonitrile]
[1]
  reaction with BME, stability or reversibility of the adduct: stable thioether adducts

## Cc1ccc(-c2c(C(=O)CF)n(CCCO)c3ncnc(N)c23)cc1 [FMK]
[2]
  potency relative to CN-NHiPr in the autophosphorylation assay: less potent than CN-NHiPr
RSK1/2 [3]
  potency relative to CN-NHiPr in the cellular occupancy assay: less potent than CN-NHiPr
RSK1/2 [4]
  time to reappearance of inhibitor-free RSK1/2 after washout: at least 48 h
[5]
  t1/2 of reaction with 10 mM glutathione: 16 h
